In PubChem BioAssay (NCI):
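Each compound was tested at five concentrations against cells in 96-well plates for 48 hours. The concentration for full growth arrest is given as TGI.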

Columns and labels:
Assay in all cases: NCI tumour cell line growth inhibition, 48 h
786-0 renal = test system: 786-0 renal
A498 renal = test system: A498 renal
A549 NSCLC = test system: A549 NSCLC
ACHN renal = test system: ACHN renal
BT-549 breast = test system: BT-549 breast
CAKI-1 renal = test system: CAKI-1 renal
CCRF-CEM leukemia = test system: CCRF-CEM leukemia
COLO 205 colon = test system: COLO 205 colon
DU-145 prostate = test system: DU-145 prostate
EKVX NSCLC = test system: EKVX NSCLC
HCC-2998 colon = test system: HCC-2998 colon
HCT-116 colon = test system: HCT-116 colon
HCT-15 colon = test system: HCT-15 colon
HL-60(TB) leukemia = test system: HL-60(TB) leukemia
HOP-62 NSCLC = test system: HOP-62 NSCLC
HOP-92 NSCLC = test system: HOP-92 NSCLC
HS 578T breast = test system: HS 578T breast
HT29 colon = test system: HT29 colon
IGROV1 ovarian = test system: IGROV1 ovarian
K-562 leukemia = test system: K-562 leukemia
KM12 colon = test system: KM12 colon
LOX IMVI melanoma = test system: LOX IMVI melanoma
M14 melanoma = test system: M14 melanoma
MALME-3M melanoma = test system: MALME-3M melanoma
MCF7 breast = test system: MCF7 breast
MDA-MB-231 breast = test system: MDA-MB-231 breast
MDA-MB-435 = test system: MDA-MB-435
MDA-N = test system: MDA-N
MOLT-4 leukemia = test system: MOLT-4 leukemia
NCI-H226 lung = test system: NCI-H226 lung
NCI-H23 lung = test system: NCI-H23 lung
NCI-H460 lung = test system: NCI-H460 lung
NCI-H522 lung = test system: NCI-H522 lung
NCI/ADR-RES ovarian = test system: NCI/ADR-RES ovarian
OVCAR-3 ovarian = test system: OVCAR-3 ovarian
OVCAR-4 ovarian = test system: OVCAR-4 ovarian
OVCAR-5 ovarian = test system: OVCAR-5 ovarian
OVCAR-8 ovarian = test system: OVCAR-8 ovarian
PC-3 prostate = test system: PC-3 prostate
RPMI-8226 leukemia = test system: RPMI-8226 leukemia
RXF 393 renal = test system: RXF 393 renal
SF-268 CNS = test system: SF-268 CNS
SF-295 CNS = test system: SF-295 CNS
SF-539 CNS = test system: SF-539 CNS
SK-MEL-2 melanoma = test system: SK-MEL-2 melanoma
SK-MEL-28 melanoma = test system: SK-MEL-28 melanoma
SK-MEL-5 melanoma = test system: SK-MEL-5 melanoma
SK-OV-3 ovarian = test system: SK-OV-3 ovarian
SN12C renal = test system: SN12C renal
SNB-19 CNS = test system: SNB-19 CNS
SNB-75 CNS = test system: SNB-75 CNS
SR leukemia = test system: SR leukemia
SW-620 colon = test system: SW-620 colon
T-47D breast = test system: T-47D breast
TK-10 renal = test system: TK-10 renal
U251 CNS = test system: U251 CNS
UACC-257 melanoma = test system: UACC-257 melanoma
UACC-62 melanoma = test system: UACC-62 melanoma
UO-31 renal = test system: UO-31 renal
DLD-1 colon = test system: DLD-1 colon
DMS 114 small cell lung = test system: DMS 114 small cell lung
HOP-18 NSCLC = test system: HOP-18 NSCLC
KM20L2 colon = test system: KM20L2 colon
LXFL 529 NSCLC = test system: LXFL 529 NSCLC
M19-MEL melanoma = test system: M19-MEL melanoma
SNB-78 CNS = test system: SNB-78 CNS
XF 498 CNS = test system: XF 498 CNS
DMS 273 small cell lung = test system: DMS 273 small cell lung
RXF-631 renal = test system: RXF-631 renal

`CCOP(=O)(OCC)OC1c2[nH]cc(C(=O)OCc3ccccc3)c2-c2cc(C(=O)OC)[nH]c2C1OC` (stereo not given) gave a TGI (786-0 renal) of 27.4 µM, a TGI (A498 renal) of over 100 µM and a TGI (A549 NSCLC) of over 61.2 µM. For the same compound, the TGI (ACHN renal) was 30.5 µM, the TGI (BT-549 breast) was 45.9 µM and the TGI (CAKI-1 renal) was over 100 µM. It also gave a TGI (CCRF-CEM leukemia) of over 100 µM, a TGI (COLO 205 colon) of over 100 µM and a TGI (DU-145 prostate) of 89.8 µM. The TGI (EKVX NSCLC) was 70.7 µM, the TGI (HCC-2998 colon) was over 78.9 µM and the TGI (HCT-116 colon) was over 85.4 µM. For the same compound, the TGI (HCT-15 colon) was over 100 µM, the TGI (HL-60(TB) leukemia) was over 100 µM and the TGI (HOP-62 NSCLC) was 36.3 µM. The TGI (HOP-92 NSCLC) was 26.3 µM, the TGI (HS 578T breast) was over 100 µM and the TGI (HT29 colon) was over 48.4 µM. It also gave a TGI (IGROV1 ovarian) of 31.6 µM, a TGI (K-562 leukemia) of over 100 µM and a TGI (KM12 colon) of over 92.6 µM. The TGI (LOX IMVI melanoma) was over 41.4 µM, the TGI (M14 melanoma) was over 100 µM and the TGI (MALME-3M melanoma) was 60 µM. It also gave a TGI (MCF7 breast) of over 100 µM, a TGI (MDA-MB-231 breast) of 37 µM and a TGI (MDA-MB-435) of over 100 µM. For the same compound, the TGI (MDA-N) was over 100 µM, the TGI (MOLT-4 leukemia) was over 100 µM and the TGI (NCI-H226 lung) was 58.3 µM. For the same compound, the TGI (NCI-H23 lung) was over 100 µM, the TGI (NCI-H460 lung) was over 100 µM and the TGI (NCI-H522 lung) was 29.1 µM. It also gave a TGI (NCI/ADR-RES ovarian) of 59.5 µM, a TGI (OVCAR-3 ovarian) of 54.8 µM and a TGI (OVCAR-4 ovarian) of over 100 µM. For the same compound, the TGI (OVCAR-5 ovarian) was over 96.1 µM, the TGI (OVCAR-8 ovarian) was over 62.8 µM and the TGI (PC-3 prostate) was over 100 µM. It also gave a TGI (RPMI-8226 leukemia) of over 100 µM, a TGI (RXF 393 renal) of over 56.3 µM and a TGI (SF-268 CNS) of over 96 µM. It also gave a TGI (SF-295 CNS) of 28.8 µM, a TGI (SF-539 CNS) of over 43.7 µM and a TGI (SK-MEL-2 melanoma) of over 76.5 µM. The TGI (SK-MEL-28 melanoma) was over 100 µM, the TGI (SK-MEL-5 melanoma) was over 82.8 µM and the TGI (SK-OV-3 ovarian) was 58 µM. For the same compound, the TGI (SN12C renal) was over 100 µM, the TGI (SNB-19 CNS) was over 100 µM and the TGI (SNB-75 CNS) was 56.2 µM. The TGI (SR leukemia) was over 100 µM, the TGI (SW-620 colon) was over 100 µM and the TGI (T-47D breast) was 24 µM. The TGI (TK-10 renal) was over 39.9 µM, the TGI (U251 CNS) was over 96.6 µM and the TGI (UACC-257 melanoma) was over 35 µM. For the same compound, the TGI (UACC-62 melanoma) was over 79.6 µM and the TGI (UO-31 renal) was over 59.1 µM.
`COc1cccc(NC(=O)CC(=O)N2N=C(N3c4ccccc4Sc4ccccc43)CC2c2ccccc2)c1` (stereo not given) gave a TGI (786-0 renal) of over 100 µM, a TGI (A498 renal) of over 100 µM and a TGI (A549 NSCLC) of over 100 µM. The TGI (ACHN renal) was over 100 µM, the TGI (CAKI-1 renal) was over 100 µM and the TGI (COLO 205 colon) was over 100 µM. The TGI (DLD-1 colon) was over 100 µM, the TGI (DMS 114 small cell lung) was over 100 µM and the TGI (EKVX NSCLC) was over 100 µM. It also gave a TGI (HCC-2998 colon) of over 100 µM, a TGI (HCT-116 colon) of over 100 µM and a TGI (HCT-15 colon) of over 100 µM. For the same compound, the TGI (HOP-18 NSCLC) was 62.2 µM, the TGI (HOP-62 NSCLC) was over 100 µM and the TGI (HOP-92 NSCLC) was over 100 µM. The TGI (HT29 colon) was over 100 µM, the TGI (IGROV1 ovarian) was over 100 µM and the TGI (KM12 colon) was over 100 µM. The TGI (KM20L2 colon) was over 100 µM, the TGI (LOX IMVI melanoma) was over 100 µM and the TGI (LXFL 529 NSCLC) was over 100 µM. The TGI (M14 melanoma) was over 100 µM, the TGI (M19-MEL melanoma) was over 100 µM and the TGI (MALME-3M melanoma) was over 100 µM. It also gave a TGI (MOLT-4 leukemia) of over 100 µM, a TGI (NCI-H226 lung) of over 100 µM and a TGI (NCI-H23 lung) of over 100 µM. It also gave a TGI (NCI-H460 lung) of over 100 µM, a TGI (OVCAR-3 ovarian) of over 100 µM and a TGI (OVCAR-4 ovarian) of over 100 µM. It also gave a TGI (OVCAR-5 ovarian) of over 100 µM, a TGI (OVCAR-8 ovarian) of over 100 µM and a TGI (RPMI-8226 leukemia) of over 100 µM. It also gave a TGI (RXF 393 renal) of over 100 µM, a TGI (SF-268 CNS) of over 100 µM and a TGI (SF-295 CNS) of over 100 µM. The TGI (SF-539 CNS) was over 100 µM, the TGI (SK-MEL-28 melanoma) was over 100 µM and the TGI (SK-MEL-5 melanoma) was over 100 µM. For the same compound, the TGI (SK-OV-3 ovarian) was over 100 µM, the TGI (SN12C renal) was over 100 µM and the TGI (SNB-19 CNS) was over 100 µM. For the same compound, the TGI (SNB-75 CNS) was over 100 µM, the TGI (SNB-78 CNS) was over 100 µM and the TGI (SR leukemia) was over 100 µM. For the same compound, the TGI (SW-620 colon) was over 100 µM, the TGI (TK-10 renal) was over 100 µM and the TGI (U251 CNS) was over 100 µM. It also gave a TGI (UACC-257 melanoma) of over 100 µM, a TGI (UACC-62 melanoma) of over 100 µM and a TGI (UO-31 renal) of over 100 µM. It also gave a TGI (XF 498 CNS) of over 100 µM.
`NC(=O)NC12CC3CC(CC(F)(C3)C1)C2` showed a TGI (786-0 renal) of over 100 µM, a TGI (A498 renal) of over 100 µM and a TGI (A549 NSCLC) of over 100 µM. The TGI (ACHN renal) was over 100 µM, the TGI (CCRF-CEM leukemia) was over 100 µM and the TGI (COLO 205 colon) was over 100 µM. It also gave a TGI (DLD-1 colon) of over 100 µM, a TGI (DMS 114 small cell lung) of over 100 µM and a TGI (DMS 273 small cell lung) of over 100 µM. It also gave a TGI (EKVX NSCLC) of over 100 µM, a TGI (HCC-2998 colon) of over 100 µM and a TGI (HCT-116 colon) of over 100 µM. The TGI (HL-60(TB) leukemia) was over 100 µM, the TGI (HOP-62 NSCLC) was over 100 µM and the TGI (HOP-92 NSCLC) was over 100 µM. The TGI (HT29 colon) was over 100 µM, the TGI (IGROV1 ovarian) was over 100 µM and the TGI (K-562 leukemia) was over 100 µM. For the same compound, the TGI (KM12 colon) was over 100 µM, the TGI (KM20L2 colon) was over 100 µM and the TGI (LOX IMVI melanoma) was over 100 µM. It also gave a TGI (LXFL 529 NSCLC) of over 100 µM, a TGI (M14 melanoma) of over 100 µM and a TGI (M19-MEL melanoma) of over 100 µM. It also gave a TGI (MALME-3M melanoma) of over 100 µM, a TGI (MOLT-4 leukemia) of over 100 µM and a TGI (NCI-H23 lung) of over 100 µM. For the same compound, the TGI (NCI-H460 lung) was over 100 µM, the TGI (NCI-H522 lung) was over 100 µM and the TGI (OVCAR-3 ovarian) was over 100 µM. For the same compound, the TGI (OVCAR-5 ovarian) was over 100 µM, the TGI (OVCAR-8 ovarian) was over 100 µM and the TGI (RPMI-8226 leukemia) was over 100 µM. It also gave a TGI (RXF 393 renal) of over 100 µM, a TGI (RXF-631 renal) of over 100 µM and a TGI (SF-539 CNS) of over 100 µM. The TGI (SK-MEL-2 melanoma) was over 100 µM, the TGI (SK-MEL-28 melanoma) was over 100 µM and the TGI (SK-OV-3 ovarian) was over 100 µM. The TGI (SNB-19 CNS) was over 100 µM, the TGI (SNB-75 CNS) was over 100 µM and the TGI (SNB-78 CNS) was over 100 µM. The TGI (SW-620 colon) was over 100 µM, the TGI (TK-10 renal) was over 100 µM and the TGI (U251 CNS) was over 100 µM. The TGI (UACC-257 melanoma) was over 100 µM, the TGI (UACC-62 melanoma) was over 100 µM and the TGI (UO-31 renal) was over 100 µM. For the same compound, the TGI (XF 498 CNS) was over 100 µM.
